Data: publication PMC4741607 (Oncotarget, 2015)
Where two headings read alike, the source gives them in different places.

Experiments:
H3255 (EGFR L858R) = assay: Proliferation (CellTiter-Glo), H3255; assay type: cell-based, human
H23 (EGFR wt) = assay: Proliferation (CellTiter-Glo), H23; assay type: cell-based, human
HCC827 EGFR Del 19 = assay: Colony formation assay, HCC827; assay type: cell-based, human
A431 (EGFR wt) = assay: Proliferation (CellTiter-Glo), A431; assay type: cell-based, human
PC-9 (EGFR Del19) = assay: Proliferation (CellTiter-Glo), PC-9; assay type: cell-based, human
H2122 (EGFR wt) = assay: Proliferation (CellTiter-Glo), H2122; assay type: cell-based, human
PC-9 EGFR del 19 = assay: Colony formation assay, PC-9; assay type: cell-based, human
H1975 (EGFR L858R/T790M) = assay: Proliferation (CellTiter-Glo), H1975; assay type: cell-based, human
H358 (EGFR wt) = assay: Proliferation (CellTiter-Glo), H358; assay type: cell-based, human
HCC827 (EGFR Del19) = assay: Proliferation (CellTiter-Glo), HCC827; assay type: cell-based, human
A549 (EGFR wt) = assay: Proliferation (CellTiter-Glo), A549; assay type: cell-based, human
H1975 EGFR (L858R/T790M) = assay: Colony formation assay, H1975; assay type: cell-based, human
H3255 EGFR L858R = assay: Colony formation assay, H3255; assay type: cell-based, human
H460 (EGFR wt) = assay: Proliferation (CellTiter-Glo), H460; assay type: cell-based, human
HCC827 cells = assay: Cell cycle analysis (FACS), HCC827; assay type: cell-based, human; conditions: HCC827, 24 h, 0.3 μM
H3255 cells = assay: Cell cycle analysis (FACS), H3255; assay type: cell-based, human; conditions: H3255, 24h, 0.3 μM
PC-9 cells = assay: Cell cycle analysis (FACS), PC-9; assay type: cell-based, human; conditions: PC-9, 24h, 0.3 μM
H460 cells = assay: Cell cycle analysis (FACS), H460; assay type: cell-based, human; conditions: H460, 48h, 0.3 μM
PC-9 xenograft = PC-9 xenograft mouse model; assay type: in vivo, Nude (Nu/Nu) mice; conditions: PC-9 xenograft, 25 mg/kg/day QD oral gavage
Protocol: (§1) Tumor diameter was measured 3 times weekly. Tumor volumes (V) were calculated by the equation (V = length × width × width/2). ALL experiments and procedures followed the guidelines of the Institutional Animal Care and Use Committees of National Institue of Biological Sciences, Beijing.

H1975 xenograft = H1975 xenograft mouse model; assay type: in vivo, Nude (Nu/Nu) mice; conditions: 25 mg/kg/day QD oral gavage
Protocol: as §1

H1975 cells [1] = conditions: DMSO = 100
H1975 cells [2] = assay: cells; conditions: Homo sapiens, NCI-H1975, read-out: Relative activity (%)
H1975 cells [3] = assay: Cell cycle analysis (FACS), H1975; assay type: cell-based, human; conditions: 0.3 μM
[4] = Homo sapiens, NCI-H3255, H3255, EGFR L858R, 72 hours, read-out: GI50
[5] = Homo sapiens, H23, EGFR wt, 72 hours, read-out: GI50
[6] = HCC827, 10 days, read-out: EC50 colony formation
[7] = Homo sapiens, HCC827, 240 h, HCC827, 10 days, read-out: EC50 colony formation
[8] = Homo sapiens, A-431, A431, EGFR wt, 72 hours, read-out: GI50
[9] = Homo sapiens, PC-9, EGFR Del19, 72 hours, read-out: GI50
[10] = Homo sapiens, NCI-H2122, H2122, EGFR wt, 72 hours, read-out: GI50
[11] = Homo sapiens, 240 h, PC-9, 10 days, read-out: EC50 colony formation
[12] = PC-9, 10 days, read-out: EC50 colony formation
[13] = Homo sapiens, NCI-H1975, H1975, EGFR L858R/T790M, 72 hours, read-out: GI50
[14] = Homo sapiens, NCI-H358, H358, EGFR wt, 72 hours, read-out: GI50
[15] = Homo sapiens, HCC827, EGFR Del19, 72 hours, read-out: GI50
[16] = Homo sapiens, A549, EGFR wt, 72 hours, read-out: GI50
[17] = Homo sapiens, NCI-H1975, 240 h, H1975, 10 days, read-out: EC50 colony formation
[18] = Homo sapiens, NCI-H3255, 240 h, H3255, 10 days, read-out: EC50 colony formation
[19] = Homo sapiens, NCI-H460, H460, EGFR wt, 72 hours, read-out: GI50

SMILES: C=CC(=O)Nc1cc(Nc2nccc(-c3cn(C)c4ccccc34)n2)c(OC)cc1N(C)CCN(C)C [AZD-9291, AZD9291]
- GI50 (H3255 (EGFR L858R); Homo sapiens, NCI-H3255, 72 h): 31 nM
- GI50 (H23 (EGFR wt); Homo sapiens, 72 h): 4200 nM
- EC50 (HCC827 EGFR Del 19; Homo sapiens, HCC827, 240 h, read-out: EC50 colony formation, HCC827, 10 days): 1.23 nM
- EC50 (HCC827 EGFR Del 19; read-out: EC50 colony formation, HCC827, 10 days): 1.2 nM
- GI50 (PC-9 (EGFR Del19); Homo sapiens, 72 h): 3 nM
- GI50 (H2122 (EGFR wt); Homo sapiens, NCI-H2122, 72 h): 7600 nM
- EC50 (PC-9 EGFR del 19; Homo sapiens, 240 h, read-out: EC50 colony formation, PC-9, 10 days): 2.51 nM
- GI50 (H358 (EGFR wt); Homo sapiens, NCI-H358, 72 h): 9400 nM
- GI50 (HCC827 (EGFR Del19); Homo sapiens, HCC827, 72 h): 4 nM
- GI50 (A549 (EGFR wt); Homo sapiens, A549, 72 h): 5000 nM
- EC50 (H1975 EGFR (L858R/T790M); Homo sapiens, NCI-H1975, 240 h, read-out: EC50 colony formation, H1975, 10 days): 118 nM
- EC50 (H1975 EGFR (L858R/T790M); read-out: EC50 colony formation, H1975, 10 days): 118 nM
- EC50 (H3255 EGFR L858R; Homo sapiens, NCI-H3255, 240 h, read-out: EC50 colony formation, H3255, 10 days): 5.59 nM
- EC50 (H3255 EGFR L858R; read-out: EC50 colony formation, H3255, 10 days): 5.5 nM
- GI50 (H460 (EGFR wt); Homo sapiens, NCI-H460, 72 h): 4000 nM

SMILES: C=CC(=O)Nc1cccc(Nc2nc(Nc3ccc(N4CCN(C(C)=O)CC4)cc3OC)ncc2C(F)(F)F)c1 [CO-1686]
- %G0-G1 (HCC827 cells): 83.96%
- %G2-M (HCC827 cells): 3.62%
- %G0-G1 (H3255 cells): 81.24%
- %G2-M (H3255 cells): 9.84%
- GI50 (H3255 (EGFR L858R); [4]): 250 nM
- %G0-G1 (PC-9 cells): 85.49%
- %G2-M (PC-9 cells): 8.97%
- GI50 (H23 (EGFR wt); [5]): 1400 nM
- EC50 (HCC827 EGFR Del 19; [6]): 11 nM
- EC50 (HCC827 EGFR Del 19; [7]): 11.5 nM
- GI50 (A431 (EGFR wt); [8]): 1200 nM
- GI50 (PC-9 (EGFR Del19); [9]): 130 nM
- GI50 (H2122 (EGFR wt); [10]): 1400 nM
- EC50 (PC-9 EGFR del 19; [11]): 56.2 nM
- EC50 (PC-9 EGFR del 19; [12]): 56 nM
- GI50 (H1975 (EGFR L858R/T790M); [13]): 440 nM
- %G0-G1 (H460 cells): 51.62%
- %G2-M (H460 cells): 8.78%
- GI50 (H358 (EGFR wt); [14]): 4800 nM
- GI50 (HCC827 (EGFR Del19); [15]): 97 nM
- GI50 (A549 (EGFR wt); [16]): 830 nM
- EC50 (H1975 EGFR (L858R/T790M); [17]): 606 nM
- EC50 (H3255 EGFR L858R; [18]): 211 nM
- GI50 (H460 (EGFR wt); [19]): 2500 nM

SMILES: COc1cc2ncnc(Nc3ccc(F)c(Cl)c3)c2cc1OCCCN1CCOCC1 [Gefitinib]
- anti-tumor activity (tumor growth) (PC-9 xenograft): almost completely suppressed the tumor growth
- anti-tumor activity (tumor growth) (H1975 xenograft): completely lost the anti-tumor efficacy

SMILES: CCC(=O)N1CCC[C@@H](n2nc(-c3ccc(Oc4ccccc4)cc3)c3c(N)ncnc32)C1 [PCI-R]
- GI50 (H3255 (EGFR L858R); H3255, EGFR L858R, 72 hours, read-out: GI50): > 10000 nM
- GI50 (H23 (EGFR wt); H23, EGFR wt, 72 hours, read-out: GI50): > 10000 nM
- GI50 (A431 (EGFR wt); A431, EGFR wt, 72 hours, read-out: GI50): > 10000 nM
- GI50 (PC-9 (EGFR Del19); PC-9, EGFR Del19, 72 hours, read-out: GI50): > 10000 nM
- GI50 (H2122 (EGFR wt); H2122, EGFR wt, 72 hours, read-out: GI50): > 10000 nM
- GI50 (H1975 (EGFR L858R/T790M); H1975, EGFR L858R/T790M, 72 hours, read-out: GI50): > 10000 nM
- GI50 (H358 (EGFR wt); H358, EGFR wt, 72 hours, read-out: GI50): > 10000 nM
- GI50 (HCC827 (EGFR Del19); HCC827, EGFR Del19, 72 hours, read-out: GI50): > 10000 nM
- GI50 (A549 (EGFR wt); A549, EGFR wt, 72 hours, read-out: GI50): > 10000 nM
- GI50 (H460 (EGFR wt); H460, EGFR wt, 72 hours, read-out: GI50): > 10000 nM

SMILES: CC(=O)Nc1cccc(-n2c(=O)n(C3CC3)c(=O)c3c(Nc4ccc(I)cc4F)n(C)c(=O)c(C)c32)c1 [Trametinib]
- H1975 cell lines growth (H1975 cells [1]; single agent 0.014 μM): 77.33
- H1975 cell lines growth (H1975 cells [1]; single agent 0.04 μM): 79.50
- H1975 cell lines growth (H1975 cells [1]; single agent 0.37 μM): 80.79
- H1975 cell lines growth (H1975 cells [1]; single agent 1.1 μM): 77.20
- H1975 cell lines growth (H1975 cells [1]; single agent 10 μM): 20.59
- activity at 1.1 µM (H1975 cells [2]): 52.2%
- GI50 (H1975 (EGFR L858R/T790M); [13]): ~1100 nM

SMILES: C=CC(=O)Nc1cccc(Oc2nc(Nc3ccc(N4CCN(C)CC4)cc3OC)ncc2Cl)c1 [WZ-4002, WZ4002]
- %G0-G1 (HCC827 cells): 79.74%
- %G2-M (HCC827 cells): 5.62%
- %G0-G1 (H3255 cells): 81.96%
- %G2-M (H3255 cells): 9.90%
- GI50 (H3255 (EGFR L858R); [4]): 120 nM
- %G0-G1 (PC-9 cells): 87.95%
- %G2-M (PC-9 cells): 6.24%
- GI50 (H23 (EGFR wt); [5]): > 10000 nM
- EC50 (HCC827 EGFR Del 19; [6]): 10 nM
- EC50 (HCC827 EGFR Del 19; [7]): 9.65 nM
- anti-tumor activity (tumor growth) (PC-9 xenograft): almost completely suppressed the tumor growth
- GI50 (A431 (EGFR wt); [8]): 1000 nM
- GI50 (PC-9 (EGFR Del19); [9]): 44 nM
- GI50 (H2122 (EGFR wt); [10]): 4500 nM
- EC50 (PC-9 EGFR del 19; [11]): 11.1 nM
- EC50 (PC-9 EGFR del 19; [12]): 11 nM
- GI50 (H1975 (EGFR L858R/T790M); [13]): 300 to 1000 nM
- %G0-G1 (H460 cells): 71.39%
- %G2-M (H460 cells): 5.15%
- GI50 (H358 (EGFR wt); [14]): > 10000 nM
- GI50 (HCC827 (EGFR Del19); [15]): 19 nM
- GI50 (A549 (EGFR wt); [16]): > 10000 nM
- EC50 (H1975 EGFR (L858R/T790M); H1975, 10 days, read-out: EC50 colony formation): 12 nM
- EC50 (H1975 EGFR (L858R/T790M); [17]): 12.2 nM
- EC50 (H3255 EGFR L858R; H3255, 10 days, read-out: EC50 colony formation): 89 nM
- EC50 (H3255 EGFR L858R; [18]): 89.1 nM
- GI50 (H460 (EGFR wt); [19]): 4800 nM
- anti-tumor activity (tumor growth) (H1975 xenograft): almost completely suppressed the tumor growth
- %G0-G1 (H1975 cells [3]; H1975, 12h): 70.4%
- %G2-M (H1975 cells [3]; H1975, 12h): 10.17%
- %G0-G1 (H1975 cells [3]; H1975, 24h): 80.35%
- %G2-M (H1975 cells [3]; H1975, 24h): 7.63%
- %G0-G1 (H1975 cells [3]; H1975, 48h): 94.64%
- %G2-M (H1975 cells [3]; H1975, 48h): 0.95%
